Reference: patent US12264159B2, “Functionalized heterocycles as antiviral agents” (Enanta Pharmaceuticals, Inc., priority 2018, dated 2025)
pEC50: −log10 of the molar value.

Assays:
[1] = Compound induced cellular toxicity in HepG2 cells, ATPlite 1Step; type: cell-based; conditions: human, three days exposure, 50% reduction of total ATP vs no drug controls
Protocol: At day 3, post seeding cells are treated with ATPlite 1Step according to the manufacturer's instructions.

HBV in 2.2.15 cells = assay: 2.2.15 cells: viral product in cell lysates quantified via quantitative real time PCR; type: cell-based, hepatitis B virus (HBV); conditions: Hepatitis B virus, 120 h, day 5 post treatment, 50% reduction of viral product vs no drug controls, readout (qPCR, HBsAg or HBeAg) not specified for the column
Method in brief: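 2.2.15 cells (35,000/well, DMEM/F12, 10% FBS, G418) were treated with 5-fold serial compound dilutions, 0.5% DMSO final. After 5 days, lysates were quantified by qPCR, or supernatant HBsAg/HBeAg by ELISA; EC50 is the concentration giving 50% reduction versus no-drug controls.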

SMILES | CC50 at 3 days [1] [µM] | pEC50 (HBV in 2.2.15 cells)
CC(C)(C)[C@@H]1Cn2nc(-c3cc(F)c(F)cc3N)cc2-c2cc(=O)c(C(=O)O)cn21 [Example 64, (R)-2-(2-amino-4,5-difluorophenyl)-6-(tert-butyl)-10-oxo-5,6-dihydro-10H-pyrazolo[1,5-a]pyrido[2,2-c]pyrazine-12-carboxylic acid] | > 25 | > 7.00
CC(C)[C@@H]1Cn2nc(C3CC3)c(-c3ccc(F)cc3)c2-c2cc(=O)c(C(=O)O)cn21 [Example 133, (R)-2-cyclopropyl-1-(4-fluorophenyl)-6-isopropyl-10-oxo-5,6-dihydro-10H-pyrazolo[1,5-a]pyrido[2,1-c]pyrazine-9-carboxylic acid] | > 25 | > 7.00
CC(C)(C)[C@@H]1Cn2nc(-c3ccc(F)cc3)c(-c3ccc(F)cc3)c2-c2cc(=O)c(-c3ncn[nH]3)cn21 [Example 194, (R)-6-(tert-butyl)-1,2-bis(4-fluorophenyl)-9-(1H-1,2,4-triazol-5-yl)-5,6-dihydro-10H-pyrazolo[1,5-a]pyrido[2,1-c]pyrazin-10-one] | 10 to 25 | > 7.00
CC(C)(C)[C@@H]1Cn2ncc(-c3ccccc3OC(F)(F)F)c2-c2cc(=O)c(C(=O)O)cn21 [Example 115, (R)-6-(tert-butyl)-10-oxo-1-(2-(trifluoromethoxy)phenyl)-5,6-dihydro-10H-pyrazolo[1,5-a]pyrido[2,1-c]pyrazine-9-carboxylic acid] | > 25 | > 7.00
CC(C)[C@@H]1Cn2nc(C3CC3)c(-c3ccsc3)c2-c2cc(=O)c(C(=O)O)cn21 [Example 128, (R)-2-cyclopropyl-6-isopropyl-10-oxo-1-(thiophen-3-yl)-5,6-dihydro-10H-pyrazolo[1,5-a]pyrido[2,1-c]pyrazine-9-carboxylic acid] | > 25 | > 7.00
CC(C)[C@@H]1Cn2nc(-c3ccc(O)cc3)c(-c3ccc(O)cc3)c2-c2cc(=O)c(C(=O)O)cn21 [Example 172, (R)-1,2-bis(4-hydroxyphenyl)-6-isopropyl-10-oxo-5,6-dihydro-10H-pyrazolo[1,5-a]pyrido[2,1-c]pyrazine-9-carboxylic acid] | > 25 | > 7.00
CC(C)(C)[C@@H]1Cn2nc(C3CC3)c(-c3cccc4c3OC(F)(F)O4)c2-c2cc(=O)c(C(=O)O)cn21 [Example 150, (R)-6-(tert-butyl)-2-cyclopropyl-1-(2,2-difluorobenzo[d][1,3]dioxol-4-yl)-10-oxo-5,6-dihydro-10H-pyrazolo[1,5-a]pyrido[2,1-c]pyrazine-9-carboxylic acid] | > 25 | > 7.00
CC(C)(C)[C@@H]1Cn2nc(-c3ccc4c(c3)OCCO4)cc2-c2cc(=O)c(C(=O)O)cn21 [Example 18, (R)-6-(tert-butyl)-2-(2,3-dihydrobenzo[b][1,4]dioxin-6-yl)-10-oxo-5,6-dihydro-10H-pyrazolo[1,5-a]pyrido[2,2-c]pyrazine-12-carboxylic acid] | > 25 | > 7.00
CC(C)(C)[C@@H]1Cn2nc(C3CC3)c(-c3ccccc3)c2-c2cc(=O)c(-c3ncn[nH]3)cn21 [Example 195, (R)-6-(tert-butyl)-2-cyclopropyl-1-phenyl-9-(1H-1,2,4-triazol-5-yl)-5,6-dihydro-10H-pyrazolo[1,5-a]pyrido[2,1-c]pyrazin-10-one] | > 25 | > 7.00
CC(C)(C)[C@@H]1Cn2nc(-c3cccc4c3OC(F)(F)O4)cc2-c2cc(=O)c(C(=O)O)cn21 [Example 21, (R)-6-(tert-butyl)-2-(2,2-difluorobenzo[d][1,3]dioxol-4-yl)-10-oxo-5,6-dihydro-10H-pyrazolo[1,5-a]pyrido[2,2-c]pyrazine-12-carboxylic acid] | > 25 | > 7.00
CC(C)(C)[C@@H]1Cn2nc(C3CC3)c(-c3cc(F)ccc3F)c2-c2cc(=O)c(C(=O)O)cn21 [Example 155, (R)-6-(tert-butyl)-2-cyclopropyl-1-(2,5-difluorophenyl)-10-oxo-5,6-dihydro-10H-pyrazolo[1,5-a]pyrido[2,1-c]pyrazine-9-carboxylic acid] | > 25 | > 7.00
CCOc1cccc(F)c1-c1cc2n(n1)C[C@@H](C(C)(C)C)n1cc(C(=O)O)c(=O)cc1-2 [Example 74, (R)-6-(tert-butyl)-2-(2-ethoxy-6-fluorophenyl)-10-oxo-5,6-dihydro-10H-pyrazolo[1,5-a]pyrido[2,2-c]pyrazine-12-carboxylic acid] | > 25 | > 7.00
